What was measured:
HCT116 cells = assay: AlamarBlue cytotoxic assay, HCT116; type: cell-based; settings: HCT-116, human colon cancer HCT116 cells, 48 h, read-out: Cytotoxicity IC50 HCT116
Description: (§1) The cells were seeded in 96-well microplates (1 × 10^4 cells/100 µL in each well) and cultivated for 24 h before the addition of test compounds. Three wells for each concentration were seeded and triplicate plates were used. […] Then, the cells were incubated with the different concentrations of the test compounds, positive control and cell culture medium alone as a negative control for 48 h. After that, 10 μL of alamarBlue® reagent was added to the attached cells and incubated for another four hour. The absorbance was measured at 600 nm using an ELISA microplate reader (Epoch; Bio Tek, Winooski, VT, USA), and the percent viability of the cells was investigated relative to the negative control that was exposed to the culture medium without compounds of the plant. Then, IC50 values were calculated by nonlinear regression analysis using GraphPad Prism (Version 6.0) software.

[1] = system: A2780, A549, HeLa, and HCT116 human cancer cell lines; assay: AlamarBlue cytotoxic assay, range over four cancer cell lines; type: cell-based; settings: read-out: Cytotoxicity IC50 range against four cancer cell lines
Description: Compounds 1-5 were tested against HeLa, HCT116, A2780and A549 human cancer cell lines using a nonfluorescent substrate, AlamarBlue® (BioSource Invitrogen, Paisely, UK) and subjected to cell viability assay as described with some modification ([15]). The cell lines were cultured in RPMI-1640 medium (Cambrex Bioscience) supplemented with 10% fetal bovine serum (FBS), and 1% penicillin/streptomycin at 37 °C in an atmosphere of 95% […] and 5% CO2. The cells were seeded in 96-well microplates (1 × 10^4 cells/100 µL in each well) and cultivated for 24 h before the addition of test compounds. Three wells for each concentration were seeded and triplicate plates were used. The test compounds were dissolved in dimethyl sulfoxide (the final amount of DMSO per well was maintained at 0.1%V/V) and their concentrations adjusted to 100, 50, 25, 12.5, 6.25 μM through dilution with the growth medium. […] The absorbance was measured at 600 nm using an ELISA microplate reader (Epoch; Bio Tek, Winooski, VT, USA), and the percent viability of the cells was investigated relative to the negative control that was exposed to the culture medium without compounds of the plant. Then, IC50 values were calculated by nonlinear regression analysis using GraphPad Prism (Version 6.0) software.

A2780 cells = assay: AlamarBlue cytotoxic assay, A2780; type: cell-based; settings: Homo sapiens, ovarian cancer A2780 cells, 48 h, read-out: Cytotoxicity IC50 A2780
Description: as §1

A549 cells = assay: AlamarBlue cytotoxic assay, A549; type: cell-based; settings: Homo sapiens, lung A549 cells, 48 h, read-out: Cytotoxicity IC50 A549
Description: as §1

HDAC [2] = assay: Whole-cell HDAC inhibition assay in HCT116 cells; type: cell-based, human; settings: HCT116, 18 h, Boc-Lys(ε-Ac)-AMC substrate
Description: (§2) The cellular HDAC assay was based on an assay published by Marek et al. ([16]). HCT116 and HeLa human cancer cell lines were seeded in 96-well tissue culture microplates (1.5 × 10^4 cells/90 µL culture medium in each well). […] The test compounds were dissolved in dimethyl sulfoxide (the final amount of DMSO/well was maintained at 0.1% V/V) and their concentrations adjusted to 70, 40, 20, 5, 1 μM through dilution with the growth medium. The reaction was started by adding 10 µL of 3 mM Boc-Lys (ε-Ac)-AMC (Bachem, Switzerland) to each well at a final concentration of 0.3 mM. The cells were incubated with the Boc-Lys (ε-Ac)-AMC for 3 h under cell culture conditions. […] The final volume of the assay is 210 µL in all the wells. After that, the solution was transferred into a black 96-well microplate with flat clear bottom and fluorescence intensity was detected at an excitation of 360 nm and emission of 470 nm in a NOVO star microplate reader (BMGLabTech, Offenburg, Germany).

HDAC [3] = assay: Whole-cell HDAC inhibition assay in HeLa cells; type: cell-based, human; settings: 18 h, Boc-Lys(ε-Ac)-AMC substrate
Description: as §2

HeLa cells = assay: AlamarBlue cytotoxic assay, HeLa; type: cell-based; settings: human cervical HeLa cells, 48 h, read-out: Cytotoxicity IC50 HeLa
Description: as §1

pan-HDAC = assay: Whole-cell pan-HDAC inhibition, range over HCT116 and HeLa cells; type: cell-based, human; settings: read-out: pan-HDAC inhibitory activity IC50 range
Description: as §2

Question: For C=C(C)C(CC=C(C)C)Cc1c2c(c(O)c3c1OC(c1ccc(O)cc1)C3c1cc(O)cc(O)c1)C(=O)CC(c1ccc(O)cc1O)O2 (centres unmarked) [Compound 4, alopecurone J], which IC50 (HCT116 cells) is on record?
Answer: 18 µM

Question: What about the IC50 [1] of the same molecule?
Answer: 9.97 to 30.9 µM

Question: What about the IC50 (A2780 cells) of the same molecule?
Answer: 21.9 µM

Question: And the IC50 (A549 cells)?
Answer: 30.9 µM

Question: What about the IC50 (HDAC [2]) of the same molecule?
Answer: 0.08 µM

Question: What about the IC50 (HDAC [3]) of the same molecule?
Answer: 3.85 µM

Question: What about the IC50 (HeLa cells) of the same molecule?
Answer: 9.97 µM

Question: And the IC50 (pan-HDAC)?
Answer: 0.08 to 3.85 µM

Question: Which IC50 (HCT116 cells) does the source give for COc1c(C2COc3cc(O)c(CC=C(C)C)c(O)c3C2=O)ccc(O)c1CC=C(C)C (centres unmarked) [Compound 1, isosophoranone] here?
Answer: 39.3 µM

Question: And the IC50 (A2780 cells)?
Answer: 49.3 µM

Question: And the IC50 (A549 cells)?
Answer: 53.5 µM

Question: And the IC50 (HDAC [2])?
Answer: 26.5 µM

Question: What about the IC50 (HDAC [3]) of the same molecule?
Answer: 34.7 µM

Question: What about the IC50 (HeLa cells) of the same molecule?
Answer: 43.2 µM

Question: Which results are given for CC(C)=CCc1c2c(c(O)c3c1O[C@@H](c1ccc(O)cc1)[C@@H]3c1cc(O)cc(O)c1)C(=O)C[C@@H](c1ccc(O)cc1O)O2 [Compound 5, alopecurone P]?
Answer: IC50 (HCT116 cells): 48.4 µM; IC50 (A2780 cells): 69 µM; IC50 (A549 cells): 54.9 µM; IC50 (HDAC [2]): 22.2 µM; IC50 (HDAC [3]): 24.9 µM; IC50 (HeLa cells): 52.6 µM

Question: C=C(C)[C@H](CC=C(C)C)Cc1c(O)cc(O)c2c1O[C@H](c1ccc(O)cc1O)CC2=O [Compound 2, sophoraflavanone G] was tested. Which IC50 (HCT116 cells) did it give?
Answer: 54.4 µM

Question: And the IC50 (A2780 cells)?
Answer: 65.5 µM

Question: And the IC50 (A549 cells)?
Answer: 72.5 µM

Question: And the IC50 (HDAC [2])?
Answer: > 70 µM

Question: What about the IC50 (HDAC [3]) of the same molecule?
Answer: > 70 µM

Question: What about the IC50 (HeLa cells) of the same molecule?
Answer: 44.2 µM

Question: With Oc1ccc(C2Oc3cc(O)cc(O)c3C2O)cc1 (centres unmarked) [Compound 3, 2-(4-hydroxyphenyl)-2,3-dihydrobenzo[b]furan-3,4,6-triol] as the molecule, how does the IC50 (HCT116 cells) read?
Answer: 54 µM

Question: And the IC50 (A2780 cells)?
Answer: > 100 µM

Question: What about the IC50 (A549 cells) of the same molecule?
Answer: 76.5 µM

Question: And the IC50 (HDAC [2])?
Answer: > 70 µM

Question: And the IC50 (HDAC [3])?
Answer: > 70 µM

Question: What about the IC50 (HeLa cells) of the same molecule?
Answer: 69.4 µM

Source: PMC8019873, “Histone Deacetylase Inhibitory and Cytotoxic Activities of the Constituents from the Roots of Sophora Pachycarpa” (Iranian Journal of Pharmaceutical Research : IJPR, 2020)
